Test results from US10806793B2, “Mucosal delivery of therapeutic molecules, proteins, or particles coupled to ceramide lipids” (Children's Medical Center Corporation, priority 2008, dated 2020).

Experiments:
[1] = Orskov et al., 1993; cited from earlier work
[2] = tested on: C12-GM1 transport to the TGN; experiment: Brefeldin effect on C12-GM1 transport; type: cell-based

Molecule	potency in vivo [1]	effect on C12-GM1 transport to the TGN [2]
GLP1(7-37): secreted form of GLP1 that contains a C-terminal Gly residue	equally potent	
C[C@H]1CCC/C=C/[C@@H]2C[C@H](O)C[C@H]2[C@H](O)/C=C/C(=O)O1 [Brefeldin-1]		inhibits C12-GM1 transport to the TGN
GLP1(7-36)amide: secreted form of GLP1 in which the carboxylic acid of Arg at position 36 has been amidated	equally potent	
